Assay in all cases: In vitro assay of antibacterial activity (agar dilution MIC)
Common to all, as to type: cell-based

For experiment [1], the system named is STREPTOCOCCUS BOVIS A-5169. The conditions noted are these: STREPTOCOCCUS BOVIS A-5169; BHI agar, 35-37 °C for 20 to 24 hours; unit assumed. As to the method: (§1) Representative compounds of the present invention were assayed in vitro for antibacterial activity as follows: Twelve petri dishes containing successive aqueous dilutions of the test compound mixed with 10 mL of sterilized Brain Heart Infusion (BHI) agar (Difco 0418-01-5) were prepared. Each plate was inoculated with 1:100 (or 1:10 for slow-growing strains, such as Micrococcus and Streptococcus) dilutions of up to 32 different microorganisms, using a Steers replicator block. The inoculated plates were incubated at 35-37 °C for 20 to 24 hours. In addition, a control plate, using BHI agar containing no test compound, was prepared and incubated at the beginning and end of each test.
(§2) An additional plate containing a compound having known susceptibility patterns for the organisms being tested and belonging to the same antibiotic class as the test compound was also prepared and incubated as a further control, as well as to provide test-to-test comparability. Erythromycin A was used for this purpose.
(§3) After incubation, each plate was visually inspected. The minimum inhibitory concentration (MIC) was defined as the lowest concentration of drug yielding no growth, a slight haze, or sparsely isolated colonies on the inoculum spot as compared to the growth control.

Experiment [2] has as its system STAPHYLOCOCCUS AUREUS CMX 642A. The note with it: BHI agar, 35-37 °C for 20 to 24 hours, unit assumed. As to the method:
as §1, §2, §3

Experiment [3] deals with STAPHYLOCOCCUS AUREUS ATCC 6538P. The conditions noted are these: BHI agar, 35-37 °C for 20 to 24 hours, unit assumed. The procedure: as §1, §2, §3
The subject of experiment [4] is STREPTOCOCCUS PYOGENES 930. The note with it: STREPTOCOCCUS PYOGENES 930; BHI agar, 35-37 °C for 20 to 24 hours; unit assumed. As to the method: as §1, §2, §3
The test system of experiment [5] is STREPTOCOCCUS PYOGENES PIU 2548. The conditions noted are these: STREPTOCOCCUS PYOGENES PIU 2548; BHI agar, 35-37 °C for 20 to 24 hours; unit assumed. As to the method: as §1, §2, §3
The test system of a further experiment is M[…] ATCC 4698. The conditions noted are these: MICROCOCCUS LUTEUS ATCC 4698; BHI agar, 35-37 °C for 20 to 24 hours; unit assumed. As to the method:
as §1, §2, §3

For experiment [6], the system named is STAPHYLOCOCCUS AUREUS 1775. The note with it: BHI agar, 35-37 °C for 20 to 24 hours, unit assumed. The procedure: as §1, §2, §3
For experiment [7], the system named is STAPHYLOCOCCUS AUREUS A-5278. The conditions noted are these: BHI agar, 35-37 °C for 20 to 24 hours, unit assumed. As to the method:
as §1, §2, §3

For experiment [8], the system named is STAPHYLOCOCCUS AUREUS A5177. The note with it: BHI agar, 35-37 °C for 20 to 24 hours, unit assumed. The procedure:
as §1, §2, §3

For another experiment, the system named is ESCHERICHIA COLI SS. The conditions noted are these: ESCHERICHIA COLI SS; BHI agar, 35-37 °C for 20 to 24 hours; unit assumed. The procedure:
as §1, §2, §3

In the next experiment the test system is ESCHERICHIA COLI JUHL. The note with it: ESCHERICHIA COLI JUHL; BHI agar, 35-37 °C for 20 to 24 hours; unit assumed. As to the method:
as §1, §2, §3

The subject of experiment [9] is STAPHYLOCOCCUS AUREUS NCTC10649M. The note with it: BHI agar, 35-37 °C for 20 to 24 hours, unit assumed. As to the method:
as §1, §2, §3

The subject of the next experiment is ESCHERICHIA COLI DC-2. The conditions noted are these: BHI agar, 35-37 °C for 20 to 24 hours, unit assumed. As to the method:
as §1, §2, §3

For experiment [10], the system named is MYCOBACTERIUM SMEGMATIS ATCC 114. The note with it: MYCOBACTERIUM SMEGMATIS ATCC 114; BHI agar, 35-37 °C for 20 to 24 hours; unit assumed. As to the method:
as §1, §2, §3

A further experiment relates to M[…] ATCC 9341. The note with it: MICROCOCCUS LUTEUS ATCC 9341; BHI agar, 35-37 °C for 20 to 24 hours; unit assumed. The procedure:
as §1, §2, §3

Experiment [11] has as its system STAPHYLOCOCCUS AUREUS CMX 553. The conditions noted are these: BHI agar, 35-37 °C for 20 to 24 hours, unit assumed. The procedure: as §1, §2, §3
The next experiment deals with N. ASTEROIDES ATCC 9970. The note with it: BHI agar, 35-37 °C for 20 to 24 hours, unit assumed. The procedure:
as §1, §2, §3

In a further experiment the test system is CANDIDA ALBICANS CCH 442. The note with it: BHI agar, 35-37 °C for 20 to 24 hours, unit assumed. As to the method:
as §1, §2, §3

Experiment [12] deals with STAPHYLOCOCCUS EPIDERMIDIS 3519. The note with it: STAPHYLOCOCCUS EPIDERMIDIS 3519; BHI agar, 35-37 °C for 20 to 24 hours; unit assumed. As to the method:
as §1, §2, §3

A further experiment relates to EN[…] ATCC 8043. The note with it: ENTEROCOCCUS FAECIUM ATCC 8043; BHI agar, 35-37 °C for 20 to 24 hours; unit assumed. The procedure:
as §1, §2, §3

Another experiment has as its system STR[…] 508. The note with it: STREPTOCOCCUS AGALACTIAE CMX 508; BHI agar, 35-37 °C for 20 to 24 hours; unit assumed. As to the method: as §1, §2, §3
For experiment [13], the system named is STREPTOCOCCUS PYOGENES EES61. The note with it: STREPTOCOCCUS PYOGENES EES61; BHI agar, 35-37 °C for 20 to 24 hours; unit assumed. The procedure:
as §1, §2, §3

We go through 4 compounds from patent publication EP0984975B1, “MULTICYCLIC ERYTHROMYCIN DERIVATIVES” (Abbott Laboratories, priority 1997, dated 1998).

For the compound `C=CCO[C@]1(C)C[C@@H](C)C2=Nc3ccccc3N3C(=O)O[C@](C)([C@@H](CC)OC(=O)[C@H](C)C(=O)[C@H](C)[C@H]1O[C@@H]1O[C@H](C)C[C@H](N(C)C)[C@H]1O)[C@H]3[C@H]2C` [Ex 8, Compound of Formula (I): R^1 is allyloxy; R^2 is H, R^3 is absent, the double bond is present, A, B, D and E are H, and Y and Z taken together with the atom to which they are attached form an oxo group], the Antibacterial Activity (MIC's) in experiment [1] was 0.1 µg/mL; in experiment [2], 0.78 µg/mL; in experiment [3], 0.78 µg/mL; in experiment [4], more than 100 µg/mL; in experiment [5] it was 0.78 µg/mL; in the experiment on M[…] ATCC 4698, 1.56 µg/mL. Also, the Antibacterial Activity (MIC's) in experiment [6] is more than 100 µg/mL; in [7], more than 100 µg/mL; in experiment [8], 0.78 µg/mL; in the experiment on ESCHERICHIA COLI SS it was 12.5 µg/mL; in the experiment on ESCHERICHIA COLI JUHL, more than 100 µg/mL; in experiment [9] it was 0.78 µg/mL. The Antibacterial Activity (MIC's) with ESCHERICHIA COLI DC-2 was more than 100 µg/mL; in experiment [10], 6.2 µg/mL; in the experiment with M[…] ATCC 9341, 0.78 µg/mL; in experiment [11], 0.78 µg/mL; in the experiment on N. ASTEROIDES ATCC 9970, 3.1 µg/mL; in the experiment with CANDIDA ALBICANS CCH 442 it was more than 100 µg/mL. For the same compound, the Antibacterial Activity (MIC's) was determined as 1.56 µg/mL in experiment [12], 0.78 µg/mL in the experiment on EN[…] ATCC 8043, 0.39 µg/mL in the experiment with STR[…] 508 and 0.39 µg/mL in experiment [13].

For the compound `CC[C@H]1OC(=O)[C@H](C)C(=O)[C@H](C)[C@@H](O[C@@H]2O[C@H](C)C[C@H](N(C)C)[C@H]2O)[C@](C)(OC)C[C@@H](C)C2Nc3ccccc3N3C(=O)O[C@@]1(C)[C@H]3[C@H]2C` (single isomer, unassigned) [Ex 3, Compound of Formula (I): R^1 is methoxy; R^2 is H, R^3 is H, the double bond is absent, A, B, D and E are H, and Y and Z taken together with the atom to which they are attached form an oxo group], the Antibacterial Activity (MIC's) was 1.56 µg/mL in [1]; 50 µg/mL in [2]; 25 µg/mL in experiment [3]; more than 100 µg/mL in experiment [4]; 25 µg/mL in [5]; 25 µg/mL in the experiment with M[…] ATCC 4698. The Antibacterial Activity (MIC's) in [6] was more than 100 µg/mL; in experiment [7], more than 100 µg/mL; in experiment [8], 25 µg/mL; in the experiment on ESCHERICHIA COLI SS, 100 µg/mL; with ESCHERICHIA COLI JUHL, more than 100 µg/mL; in experiment [9] it was 50 µg/mL. The Antibacterial Activity (MIC's) is more than 100 µg/mL in the experiment with ESCHERICHIA COLI DC-2; 50 µg/mL in experiment [10]; 3.1 µg/mL in the experiment with M[…] ATCC 9341; 50 µg/mL in experiment [11]; 6.2 µg/mL with N. ASTEROIDES ATCC 9970; more than 100 µg/mL in the experiment on CANDIDA ALBICANS CCH 442. The Antibacterial Activity (MIC's) in experiment [12] is 50 µg/mL; with EN[…] ATCC 8043 it was 12.5 µg/mL; in the experiment on STR[…] 508 it was 3.1 µg/mL; in experiment [13] it was 3.1 µg/mL.

For the compound `CC[C@H]1OC(=O)[C@H](C)C(=O)[C@H](C)[C@@H](O[C@@H]2O[C@H](C)C[C@H](N(C)C)[C@H]2O)[C@](C)(OC)C[C@@H](C)C2=Nc3cc(C#N)ccc3N3C(=O)O[C@@]1(C)[C@H]3[C@H]2C` [Ex 6, Compound of Formula (I): R^1 is methoxy; R^2 is H, R^3 is absent, the double bond is present, A, B, and E are H, D is cyano and Y and Z taken together with the atom to which they are attached form an oxo group], the Antibacterial Activity (MIC's) in experiment [1] is 0.01 µg/mL; in [2], 0.39 µg/mL; in experiment [3] it was 0.39 µg/mL; in experiment [4], more than 100 µg/mL; in [5], 0.39 µg/mL; in the experiment on M[…] ATCC 4698 it was 0.39 µg/mL. The Antibacterial Activity (MIC's) in experiment [6] is more than 100 µg/mL; in experiment [7] it was more than 100 µg/mL; with ESCHERICHIA COLI SS it was 3.1 µg/mL; in the experiment with ESCHERICHIA COLI JUHL, more than 100 µg/mL; in [9] it was 0.39 µg/mL; with ESCHERICHIA COLI DC-2, more than 100 µg/mL. Besides, the Antibacterial Activity (MIC's) in experiment [10] is 0.1 µg/mL; in the experiment on M[…] ATCC 9341, 0.05 µg/mL; in experiment [11], 0.39 µg/mL; in the experiment with N. ASTEROIDES ATCC 9970, 0.39 µg/mL; in the experiment on CANDIDA ALBICANS CCH 442 it was more than 100 µg/mL; in experiment [12], 0.2 µg/mL. The Antibacterial Activity (MIC's) with EN[…] ATCC 8043 came out at 0.05 µg/mL; in the experiment with STR[…] 508 it was 0.05 µg/mL; in experiment [13], 0.01 µg/mL.

Regarding `CC[C@H]1OC(=O)[C@H](C)C(=O)[C@H](C)[C@@H](O[C@@H]2O[C@H](C)C[C@H](N(C)C)[C@H]2O)[C@](C)(OC)C[C@@H](C)C2=Nc3cc(C)ccc3N3C(=O)O[C@@]1(C)[C@H]3[C@H]2C` [Ex 4, Compound of Formula (I): R^1 is methoxy; R^2 is H, R^3 is absent, the double bond is present, A, B, and E are H, D is methyl, and Y and Z taken together with the atom to which they are attached form an oxo group], the Antibacterial Activity (MIC's) is 0.01 µg/mL in experiment [1]; 0.78 µg/mL in experiment [2]; 0.78 µg/mL in [3]; more than 100 µg/mL in [4]; 0.2 µg/mL in experiment [5]; 0.2 µg/mL in the experiment with M[…] ATCC 4698. In addition, the Antibacterial Activity (MIC's) was more than 100 µg/mL in experiment [7]; 0.78 µg/mL in [8]; 0.2 µg/mL in the experiment with ESCHERICHIA COLI SS; more than 100 µg/mL with ESCHERICHIA COLI JUHL; 0.78 µg/mL in experiment [9]; more than 100 µg/mL in the experiment with ESCHERICHIA COLI DC-2. The Antibacterial Activity (MIC's) was 100 µg/mL in experiment [10]; 0.1 µg/mL in the experiment on M[…] ATCC 9341; 0.1 µg/mL with N. ASTEROIDES ATCC 9970; more than 100 µg/mL in the experiment on CANDIDA ALBICANS CCH 442; 0.01 µg/mL with STR[…] 508; 0.01 µg/mL in experiment [13].
